{"source": "patent US7928225B2", "about": "“Oxabispidine compounds for the treatment of cardiac arrhythmias” (AstraZeneca AB, priority 2005, dated 2011)", "key": {"[1]": {"test_system": "anaesthetised guinea pigs", "test": "Test A: Primary electrophysiological effects in anaesthetised guinea pigs (MAP duration)", "type": "in vivo, guinea pig", "conditions": "infusion into jugular vein, MAP duration at 75 percent repolarization during pacing, from mean dose-response curve", "procedure": "Primary Electrophysiological Effects in Anaesthetised Guinea Pigs\nGuinea pigs weighing between 500 and 1000 g were used. The animals were housed for at least one week before the experiment and had free access to food and tap water during that period.\nAnaesthesia was induced by an intraperitoneal injection of pentobarbital (50 to 60 mg/kg) and catheters were introduced into one carotid artery (for blood pressure recording and blood sampling) and into one jugular vein (for drug infusions). Needle electrodes were placed on the limbs for recording of ECGs (lead II). […]\nThe left ventricular epicardium was exposed by a left-sided thoracotomy, and a custom-designed suction electrode for recording of the monophasic action potential (MAP) was applied to the left ventricular free wall. The electrode was kept in position as long as an acceptable signal could be recorded, otherwise it was moved to a new position. […]\nOf the numerous variables measured in this analysis, three were selected as the most important for comparison and selection of active compounds. […] Systolic and diastolic blood pressure were measured in order to judge the haemodynamic status of the anaesthetised animal. […]\nThe mean of the two control recordings was set to zero and the effects recorded after consecutive doses of test substance were expressed as percentage changes from this value. […]"}, "HERG channel": {"molecular_target": "T1, HERG channel (Homo sapiens, UniProt Q12809)", "T1 construct": "expressed in transfected cells", "T1 sequence (Q12809 whole entry)": "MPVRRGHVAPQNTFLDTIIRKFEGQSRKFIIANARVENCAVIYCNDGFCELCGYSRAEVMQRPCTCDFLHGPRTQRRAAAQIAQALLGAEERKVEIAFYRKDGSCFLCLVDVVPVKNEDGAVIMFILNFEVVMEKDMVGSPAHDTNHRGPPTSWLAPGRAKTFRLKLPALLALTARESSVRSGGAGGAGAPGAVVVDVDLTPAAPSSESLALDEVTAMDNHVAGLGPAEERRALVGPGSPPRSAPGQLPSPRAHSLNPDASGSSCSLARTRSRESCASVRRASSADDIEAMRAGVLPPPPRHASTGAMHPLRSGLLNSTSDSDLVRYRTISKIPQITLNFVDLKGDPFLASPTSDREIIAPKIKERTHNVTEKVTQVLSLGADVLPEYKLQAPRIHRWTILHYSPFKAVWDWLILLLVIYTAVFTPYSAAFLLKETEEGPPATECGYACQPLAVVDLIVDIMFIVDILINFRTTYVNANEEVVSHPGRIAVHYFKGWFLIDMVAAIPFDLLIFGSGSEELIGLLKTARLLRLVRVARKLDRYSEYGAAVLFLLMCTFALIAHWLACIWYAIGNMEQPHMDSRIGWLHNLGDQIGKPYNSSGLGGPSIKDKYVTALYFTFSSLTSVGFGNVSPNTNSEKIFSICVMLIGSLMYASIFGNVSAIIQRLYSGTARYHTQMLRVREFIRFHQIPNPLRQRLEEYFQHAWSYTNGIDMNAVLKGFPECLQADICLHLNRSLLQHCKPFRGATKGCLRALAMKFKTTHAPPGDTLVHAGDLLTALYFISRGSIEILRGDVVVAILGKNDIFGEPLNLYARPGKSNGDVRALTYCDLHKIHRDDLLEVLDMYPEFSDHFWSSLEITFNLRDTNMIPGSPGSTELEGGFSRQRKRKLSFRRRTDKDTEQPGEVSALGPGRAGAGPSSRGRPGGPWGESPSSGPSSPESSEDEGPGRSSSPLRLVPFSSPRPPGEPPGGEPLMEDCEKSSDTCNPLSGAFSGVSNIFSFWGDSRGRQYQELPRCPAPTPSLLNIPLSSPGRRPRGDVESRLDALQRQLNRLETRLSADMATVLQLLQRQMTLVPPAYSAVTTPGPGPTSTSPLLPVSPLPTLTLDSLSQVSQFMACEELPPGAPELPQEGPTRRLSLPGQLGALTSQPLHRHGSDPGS", "test": "Test B: Rb+-efflux assay for detection of HERG channel blockers", "type": "cell-based", "conditions": "depolarisation-induced Rb+-efflux from Chinese hamster ovary cells stably expressing the HERG-channel", "procedure": "Rb^+-Efflux Assay for Detection of HERG Channel Blockers\nThe human ether-a-go-go related gene (HERG) encodes the voltage-gated K^+ channel underlying the cardiac rapid delayed rectifier current IKr. The IC50 value for HERG channel blockade was determined using a high throughput functional assay based on depolarisation-induced Rb^+-efflux from Chinese hamster ovary cells stably expressing the HERG-channel.\nCells were grown in Ham F12 (Life Technologies 31765-027) supplemented with 10% FBS and 0.6 mg/mL hygromycin B and were routinely passaged twice-weekly. For experimental studies, cells were plated at a density of 15,000 cells/well in Falcon, 384-well tissue culture-treated black-walled clear-bottomed plates and were thereafter incubated overnight at 37° C. in a cell culture incubator.\nFollowing incubating overnight, cell plates were washed and a Rb^+-Load buffer (a physiological buffer containing Rb^+) was added. Cell plates were then incubated for 3 hours and were thereafter washed. Following this wash, the test compounds were added. The cell plates were then incubated for another 10 minutes and, following this incubation period, external K^+ concentration was increased in order to depolarize the cells and activate HERG channels. […]\nCompound activity was expressed as: […]"}}}
{"smiles": "CC(C)(C)OC(=O)NCCN1CC2CN(CCOc3ccc(C#N)cc3F)CC(C1)O2", "note": "[Example 2, tert-Butyl (2-{7-[2-(4-cyano-2-fluorophenoxy)ethyl]-9-oxa-3,7-diazabicyclo-[3.3.1]non-3-yl}ethyl)carbaamate]", "values": [{"measurement": "D10 (cumulative dose prolonging the MAP duration by 10% from the baseline; index of class III electrophysiological potency)", "setting": "[1]", "result": 6.3}, {"measurement": "pIC50 for HERG channel blockade", "setting": "HERG channel", "result": 5.0}]}
{"smiles": "CC(C)(C)OC(=O)NCCCN1CC2CN(CCCOc3ccc(C#N)cc3)CC(C1)O2", "note": "[Example 5]", "values": [{"measurement": "D10 (cumulative dose prolonging the MAP duration by 10% from the baseline; index of class III electrophysiological potency)", "setting": "[1]", "result": 6.8}, {"measurement": "pIC50 for HERG channel blockade", "setting": "HERG channel", "result": 6.19}]}
